Laboratory results reported in the supplement of paper PMC10307832.

How the values were obtained:
Assay in all cases: relative viability (nuclei count vs DMSO), 5 days (fraction); higher = more cells survive
XMD14-99 + Vorinostat = compound: CN1CCN(CC1)C2=CC(=C(C=C2)NC3=NC(=C(S3)C(=O)C4=C(C=CC=C4Cl)Cl)N)OC [XMD14-99] + O=C(CCCCCCC(=O)Nc1ccccc1)NO [Vorinostat] (partner 1 µM)
Method in brief: (§1)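 Five library-drug doses in √10 steps were combined with a fixed anchor-drug dose, or a single drug was given alone, by pin tool to lung cancer cell lines in 1536-well plates the day after seeding. Nuclei were stained and counted after 5 days. Relative viability is the nuclei count in treated wells over that in vehicle wells, taken as the median of duplicate plates.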

XMD14-99 + Foretinib = compound: CN1CCN(CC1)C2=CC(=C(C=C2)NC3=NC(=C(S3)C(=O)C4=C(C=CC=C4Cl)Cl)N)OC [XMD14-99] + COc1cc2c(Oc3ccc(NC(=O)C4(C(=O)Nc5ccc(F)cc5)CC4)cc3F)ccnc2cc1OCCCN1CCOCC1 [Foretinib] (partner 0.25 µM)
Method in brief: as §1

AZD1208 + Vorinostat = compound: N[C@@H]1CCCN(c2c(/C=C3\SC(=O)NC3=O)cccc2-c2ccccc2)C1 [AZD1208] + O=C(CCCCCCC(=O)Nc1ccccc1)NO [Vorinostat] (partner 1 µM)
Method in brief: as §1

XMD14-99 + Alpelisib = compound: CN1CCN(CC1)C2=CC(=C(C=C2)NC3=NC(=C(S3)C(=O)C4=C(C=CC=C4Cl)Cl)N)OC [XMD14-99] + Cc1nc(NC(=O)N2CCC[C@H]2C(N)=O)sc1-c1ccnc(C(C)(C)C(F)(F)F)c1 [Alpelisib] (partner 2 µM)
Method in brief: as §1

Cell Line: UMC-11
- relative viability (XMD14-99 + Vorinostat; first compound 0.08 µM): 0.422
- relative viability (XMD14-99 + Vorinostat; first compound 0.8 µM): 0.352
- relative viability (XMD14-99 + Vorinostat; first compound 2.53 µM): 0.416
- relative viability (XMD14-99 + Vorinostat; first compound 8 µM): 0.346
- relative viability (XMD14-99 + Foretinib; first compound 0.08 µM): 1.03
- relative viability (XMD14-99 + Foretinib; first compound 0.8 µM): 1.02
- relative viability (XMD14-99 + Foretinib; first compound 2.53 µM): 1.03
- relative viability (XMD14-99 + Foretinib; first compound 8 µM): 0.865
- relative viability (AZD1208 + Vorinostat; first compound 0.08 µM): 0.362
- relative viability (AZD1208 + Vorinostat; first compound 0.253 µM): 0.354
- relative viability (AZD1208 + Vorinostat; first compound 0.8 µM): 0.3
- relative viability (AZD1208 + Vorinostat; first compound 2.53 µM): 0.294
- relative viability (AZD1208 + Vorinostat; first compound 8 µM): 0.211
- relative viability (XMD14-99 + Alpelisib; first compound 0.08 µM): 0.939
- relative viability (XMD14-99 + Alpelisib; first compound 0.8 µM): 1.02
- relative viability (XMD14-99 + Alpelisib; first compound 2.53 µM): 1.01
- relative viability (XMD14-99 + Alpelisib; first compound 8 µM): 0.735
